Data published in PubChem BioAssay (NCI).
Several values for one entry are separate records, joined by “and”; a condition that tells them apart may be missing. Equal values may be shown once.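 Protocol summary: plate cells (96-well), add compound at 5 concentrations, incubate 48 h, interpolate endpoints linearly. GI50 = concentration required for 50% inhibition of growth. At the TGI there is no net growth.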

What was measured:
Assay in all cases: growth of human tumour cells (NCI), 48 h
[1] = system: OVCAR-4 ovarian
[2] = system: UACC-62 melanoma
[3] = system: HT29 colon
[4] = system: CAKI-1 renal
[5] = system: KM12 colon
[6] = system: OVCAR-8 ovarian
[7] = system: SNB-75 CNS
[8] = system: U251 CNS
[9] = system: A498 renal
[10] = system: HCT-15 colon

| SMILES | TGI [1] | TGI [2] | TGI [3] | TGI [4] | TGI [5] | TGI [6] | TGI [7] | TGI [8] | TGI [9] | TGI [10] | GI50 [1] | GI50 [2] | GI50 [3] | GI50 [4] | GI50 [5] | GI50 [6] | GI50 [7] | GI50 [8] | GI50 [9] | GI50 [10] |
| --- | --- | --- | --- | --- | --- | --- | --- | --- | --- | --- | --- | --- | --- | --- | --- | --- | --- | --- | --- | --- |
| COc1cc2c3c(c1OC)C1(C=CC(=O)C=C1)CC3NCC2 (stereo not given) | > 100 µM | > 100 µM | > 100 µM | > 100 µM | > 100 µM | > 100 µM | > 100 µM | > 100 µM | > 100 µM | > 100 µM | – | – | – | – | – | – | – | – | – | – |
| CC(=O)c1cc(-c2ccccc2N)n(-c2ccc3c(c2)OCO3)c1C | > 100 µM | 23 µM | > 35.6 µM | 83.7 µM | > 37.7 µM | > 100 µM | > 93.9 µM | > 100 µM | 0.808 µM | > 100 µM | 0.924 µM | 0.227 µM | 0.292 µM | 0.406 µM | 0.295 µM | 0.156 µM | 0.255 µM | 0.277 µM | 0.195 µM | 0.296 µM |
| CN1C(=O)C2C=CC1C1CCC2N(C)C1=O (stereo not given) | > 100 µM | > 100 µM | > 100 µM | > 100 µM | > 100 µM | > 100 µM | > 100 µM | > 100 µM | > 100 µM | > 100 µM | – | – | – | – | – | – | – | – | – | – |
| COc1cc2c(c(OC)c1OC)-c1ccc(O)c(=O)cc1[C@@H](NC(C)=O)CC2 | > 100 µM and 66.1 µM | 18.1 µM and 30 µM | > 100 µM and 89.7 µM | > 100 µM and 37.5 µM | > 100 µM and 32.8 µM | > 100 µM and 35.7 µM | > 100 µM | > 100 µM and 35.4 µM | > 100 µM and 44.1 µM | > 100 µM and 28 µM | 3.64 µM | 3.82 µM | 6.91 µM | 4.91 µM | 8.68 µM | 3.77 µM | 16.3 µM | 5.93 µM | 15 µM | 5.04 µM |
| CCOC(=O)Nc1nc2cc(OCC)ccc2s1 | > 100 µM | > 100 µM | > 100 µM | > 100 µM | > 100 µM | > 100 µM | > 100 µM | > 100 µM | > 100 µM | > 100 µM | > 100 µM | 58.3 µM | 4.26 µM | > 75.4 µM | 3.86 µM | > 76.1 µM | 53.8 µM | 26.8 µM | 6.46 µM | 4.8 µM |
| CCCCN(CCCC)CCc1c(C)cc(C)c(CCN(CCCC)CCCC)c1O | > 100 µM | 29.7 µM | 13 µM | 7.35 µM | 21.2 µM | > 100 µM | 40.3 µM | 42.6 µM | 7.31 µM | 13 µM | 3.13 µM | 2.86 µM | 2.52 µM | 2.17 µM | 3.2 µM | 3.28 µM | 2.52 µM | 3.24 µM | 2.3 µM | 3.06 µM |
| CC1=NOC(=O)C1N=Nc1ccc(Br)c(C)c1 (stereo not given) | 29.3 µM | 37.7 µM | > 100 µM | 30.8 µM | 78 µM | 32.7 µM | 60.5 µM | 37.8 µM | 36.2 µM | 41.6 µM | – | – | – | – | – | – | – | – | – | – |
| Nc1cc2[nH]cnc2c(=O)[nH]1 | > 300 µM | > 300 µM | > 300 µM | 135 µM | > 300 µM | > 300 µM | > 300 µM | > 300 µM | 298 µM | > 300 µM | – | – | – | – | – | – | – | – | – | – |
| COc1ccc2ccccc2c1CN1CCOCCOCCN(Cc2c(OC)ccc3ccccc23)CCOCCOCC1 | > 100 µM | > 100 µM | > 44 µM | > 100 µM | > 100 µM | > 100 µM | > 100 µM | > 100 µM | > 100 µM | > 100 µM | – | – | – | – | – | – | – | – | – | – |
| COC(=O)[C@H]1N[C@@H](C(=O)OC)C23CCC[C@H]2CC[C@]1(C(OC)OC)C3 | > 100 µM | > 100 µM | > 100 µM | > 100 µM | > 100 µM | > 100 µM | > 100 µM | > 100 µM | > 100 µM | > 100 µM | – | – | – | – | – | – | – | – | – | – |
| C/C(=C(/c1ccc(O)cc1)c1ccc(Cl)cc1)c1ccccc1 | 2.61 µM | 1.06 µM | 3.17 µM | 2.68 µM | 1.22 µM | 3.21 µM | 1.96 µM | 1.18 µM | 5.06 µM | 2.06 µM | 0.66 µM | 0.473 µM | 0.852 µM | 0.781 µM | 0.543 µM | 0.9 µM | 0.629 µM | 0.537 µM | 1.54 µM | 0.639 µM |
| Clc1ccc2c(c1)[nH]c1c2nc2sccn21 | > 100 µM | > 100 µM | > 100 µM | > 100 µM | > 100 µM | > 100 µM | > 100 µM | > 100 µM | > 100 µM | > 100 µM | – | – | – | – | – | – | – | – | – | – |
| CC(C)(C)n1cc(-c2ccnc(NCCCNS(=O)(=O)c3ccc(Br)cc3)c2)c(-c2cccc(O)c2)n1 | 3.91 µM | 3.06 µM | 3.79 µM | 5.06 µM | 4.37 µM | 6.88 µM | 4.11 µM | 3.66 µM | 3.47 µM | 3.17 µM | 1.91 µM | 1.59 µM | 1.42 µM | 2.16 µM | 2.11 µM | 2.43 µM | 1.76 µM | 1.65 µM | 1.33 µM | 1.48 µM |
